# Assay results reported in patent US20240248101A1 (The United States of America, as represented by the …, priority 2021, published 2024).
# “And” between values parts separate entries of the source, which are not always exact repeats. Equal values may be shown once.
# Key:
# [1] = Vitamin C renal leak study in men with Fabry disease and healthy male controls (matched fasting plasma and 1 h urine); format: in vivo, human; details: for median fractional excretion of vitamin C (FeVC): all subjects
# Description: Study design: This was a non-randomized cross-sectional cohort study aimed at investigating the prevalence and clinical characteristics of vitamin C renal leak in men with Fabry disease and healthy male controls. The protocols were approved by the Institutional Review Boards of NINDS and NIDDK, NIH.
# Participants: Men with Fabry disease who were actively participating in NIH protocols evaluating the open label use of enzyme replacement therapy (ERT) in Fabry disease (95-N-0121, 00-N-0185 and 02-N-0220), ClinicalTrials.gov Identifiers: NCT00001491 and NCT00068107) were recruited. The male predominance in Fabry disease is based on the X-linked inheritance pattern. Accordingly, healthy men aged 18-58 were recruited on a rolling basis as controls for the Fabry cohort, under NIH protocol 04-DK-0021 (arm 3). Exclusion criteria included acute or chronic illness, alcohol abuse or tobacco use.
# Matched urine and plasma vitamin C measurements: Following an overnight fast, on the morning of study, subjects were instructed to empty their bladder. […] Following the initial spot urine collection, subjects were hospitalized for another 24 hours. They consumed a hospital diet free of supplements or foods items with no or low vitamin C content. On morning of day 2, collection of all voided urine for 24 hours (termed 24 h urine) was obtained and subjects were discharged home.
# Primary endpoint was the prevalence of vitamin C renal leak in the Fabry's cohort compared with healthy controls. Renal leak status (leak vs no leak) was determined using criteria described in depletion-repletion studies above. […] To address this limitation, renal leak was also expressed as fractional excretion of vitamin C (FeVC) defined as follows: […]
# Following an overnight fast, on the morning of study, subjects were instructed to empty their bladder. […] Subjects could watch TV, read, take naps, or rest in any other way they choose. […]
# [2] = Vitamin C renal leak study in diabetic cohort, nondiabetic controls and healthy subgroup (matched fasting plasma and 1 h urine); format: in vivo, human; details: for Plasma Vitamin C Concentration (mean): fasting
# Protocol: Vitamin C in plasma and urine was measured using coulometric electrochemical detection with high performance liquid chromatography.
# Study design: This was a non-randomized cross-sectional cohort outpatient study aimed at investigating the prevalence and clinical characteristics of vitamin C renal leak in a cohort of individuals with diabetes and non-diabetic controls. The protocol was approved by the Institutional Review Boards of NIDDK, NIH.
# Participants and Recruitment: The study included a cohort of diabetic and non-diabetic individuals aged 18-65, without known acute or chronic medical conditions other than complications of diabetes mellitus or metabolic syndrome. Exclusion criteria included presence of an acute or chronic illness, alcohol abuse or tobacco use and pregnancy.
# Subjects were also instructed to avoid food or drinks (other than water and medications) after midnight, prior to study sampling day. On morning of study sampling, subjects were admitted to the NIH CRC's metabolic unit as outpatients. They were instructed to empty their bladder. […] Subjects were subsequently provided with a meal and discharged home.
# Study Groups and Comparators for Analyses: Three groups of participants who met the inclusion and exclusion criteria were used for data analyses: diabetic cohort, nondiabetic control group and healthy subgroup. The diabetic cohort was comprised of men and women with type 1 or type 2 diabetes. The nondiabetic control group was made up of individuals without diabetes and were not taking any chronic medications. To investigate unknown factors associated with renal leak, related and unrelated to diabetes, the study exclusion criteria was non-restrictive to recruit a broad sampling of the population. Thus, the nondiabetic control group included asymptomatic subjects with abnormal laboratory values which not determined to be clinically significant during the screening evaluation. However, inclusion of individuals with abnormal laboratory values in the non-diabetic control group could confound study findings. To address this concern, a post-hoc healthy subgroup of the nondiabetic control group without abnormal laboratory findings was identified. Primary comparative analysis was between the diabetic group vs nondiabetic control group. The diabetic group was secondarily compared with the healthy subgroup to assess for discordant findings.
# This binary criterion is a qualitative measure indicating the presence or absence of a renal leak in a subject. The prevalence of renal leak was calculated as the proportion of leakers in each population cohort.
# FeVC is a quantitative measure that describes the degree and magnitude of a renal leak. The formula for calculating FeVC is shown below: […]
# Sample collection and vitamin C assay: Urine and plasma vitamin C were analyzed by HPLC with coulometric electrochemical detection. Other blood and urine chemistry measurements were performed, using standard laboratory methods, by the department of laboratory medicine Clinical Laboratory Improvement Amendments (CLIA) identification number: 21D0665373, Clinical Research Center, National Institutes of Health.
# [3] = Plasma and urine vitamin C in gulo-/- mice given vitamin C in drinking water; format: in vivo, mouse; details: gulo-/- mice of both sexes, vitamin C 0 to 5000 mg/L in drinking water
# Protocol: Values represent means+/−SDs. All mice were maintained at each dose for one week before blood and urine sampling.
# Animal experiments were approved by the Animal Care and Use Committee NIDDK, NIH, and were conducted in accordance with NIH guidelines. Mice were 10-14-week-old males and females with free access to food and water and were maintained on a regular chow diet (NIH-07) without detectable ascorbate (detection limit 10 nM). Mice type were gulo^−/− and SVCT1^−/−. […] To maintain the mice, vitamin C was provided via drinking water, which was changed daily.
# Plasma and RBCs were from mouse whole blood as described. Urine was collected at the same time as the blood by gentle abdominal pressure.
# Blood and urine samples were collected on ice and processed promptly. All samples were stored at −80 C and assayed together by HPLC as previously described.
# [4] = Vitamin C depletion-repletion pharmacokinetic study: renal threshold and minimal elimination threshold (PBPK and PCF modelling); format: in vivo, human; details: for vitamin C renal threshold, Population Curve Fitting (PCF): population estimate
# Protocol: Renal threshold was estimated using physiology-based pharmacokinetics modeling. […] Mice knockout models were used for proof-of-concept studies. Vitamin C was measured using coulometric electrochemical detection with high performance liquid chromatography.
# Pharmacokinetics components of depletion-repletion study design have been described previously (see supplementary methods). The protocol was approved by the Institutional Review Board, National Institutes of Diabetes and Digestive and Kidney diseases (NIDDK), National Institutes of Health (NIH).
# Participants, Interventions: Healthy men and women aged 18 to 35 years without any acute or chronic medical conditions. Details on eligibility and study interventions are described in supplementary methods.
# Full details regarding studying outcomes and analyses are provided in supplementary methods. […] Each subject had 5-7 oral and intravenous pharmacokinetic studies over a 13-fold or greater dose range. Data from the NIH depletion study in men and women were used to estimate the vitamin C renal threshold by two different methods: physiology-based pharmacokinetics modeling (PBPK), and population curve fitting with empirical functions (PCF). […] Based on data from healthy men, this model facilitated description of pharmacokinetics-time profiles of vitamin C in plasma, urine, and tissues simultaneously. Goodness of fit analyses support the use of this model to data from healthy women. For population curve fitting (PCF), plasma and urine values were analyzed using nonlinear mixed-effect modeling. PCF fits empirical functions to data from all subjects of each sex to estimate the renal threshold for that population of men and women. Using PBPK analyses, minimal elimination threshold (MET) was defined as that plasma concentration 2 standard deviations below the mean renal threshold for men and for women based on guidelines for estimating dietary reference intakes. […] (see supplementary methods).
# Because urine samples collected at variable intervals were not synchronized with plasma samples, the time at which vitamin C first appears in the urine or when vitamin C urinary elimination became zero could not be determined from raw data alone. […] Using the data from the NIH depletion repletion study, vitamin C renal threshold was estimated by two different methods: Physiology-Based Pharmacokinetics model (PBPK) and population curve fitting (PCF).
# Goodness of fit analysis support the use of the pharmacokinetics model to data collected from 15 normal women. […] When the amount of filtered vitamin C exceeds renal tubular reabsorptive capacity, vitamin C appears in the urine. The point at which renal threshold is reached (when filtration and reabsorption are in equilibrium) can be represented as
# The Cplasma that fulfill the above equation is the plasma concentration threshold (renal threshold). At which time, the rate of vitamin C dispense into the tubule equals zero. The equation 2 can be rearranged as
# Different non-parametric empirical functions were explored to best describe the combined urine data versus plasma vitamin C value of all subjects. After the structure function (model) was selected using goodness-of-fit assessments, plasma and urine data analyses were finalized using Nonlinear Mixed-Effect (MLME) modeling for population fit with S-Plus for Windows (version 8, Insightful Corp. Seattle, WA) to estimate the parameters account for inter-subject variabilities.
# A Michealis-Menten equation (equation 4) was selected and fitted to data to estimate the parameters Vm and KM (maximum rate and Michaelis constant, respectively).
# Initial estimate of Vm and KM were obtained by inspecting data plots. Goodness-of-fit was checked by visually inspecting the distribution of Standardized Residuals. If the goodness of fit was not acceptable, the initial parameters (Vm and KM) were changed and the resulting plot inspected again for distribution of residuals. […]
structure (smiles),measurement,setting,value
O=C1O[C@H]([C@@H](O)CO)C(O)=C1O [vitamin C],mean plasma vitamin C concentration,"[1]; Fabry cohort and healthy controls after 3-week low vitamin C diet, order of cohorts not stated",38.9 µM and 36.5 µM
same,median fractional excretion of vitamin C (FeVC),[1]; healthy male controls,0
same,median fractional excretion of vitamin C (FeVC),[1]; men with Fabry disease,0.018
same,Median FeVC,"[2]; Diabetic Cohort, All Subjects",0.00032
same,Median FeVC,"[2]; Diabetic Cohort, Plasma Vit C < MET",0.00015
same,Median FeVC,"[2]; Diabetic Cohort, Plasma Vit C ≥ MET",0.0012 and 0.00122
same,Plasma Vitamin C Concentration (mean),"[2]; Diabetic Cohort, table part adjusted for sex/gender",40.9 µM
same,Plasma Vitamin C Concentration (mean),"[2]; Diabetic Cohort, un-adjusted for sex/gender",40.9 µM
same,Median FeVC,"[2]; Healthy Subgroup, All Subjects",0.00046
same,Median FeVC,"[2]; Healthy Subgroup, Plasma Vit C < MET",0
same,Median FeVC,"[2]; Healthy Subgroup, Plasma Vit C ≥ MET",0.00046
same,Plasma Vitamin C Concentration (mean),"[2]; Healthy Subgroup, table part adjusted for sex/gender",57.1 µM
same,Plasma Vitamin C Concentration (mean),"[2]; Healthy Subgroup, un-adjusted for sex/gender",57.1 µM
same,Median FeVC,"[2]; Non-Diabetic Control, All Subjects",0.00044
same,Median FeVC,"[2]; Non-Diabetic Control, Plasma Vit C < MET",0.0000
same,Median FeVC,"[2]; Non-Diabetic Control, Plasma Vit C ≥ MET",0.0010
same,Plasma Vitamin C Concentration (mean),"[2]; Non-Diabetic Control, table part adjusted for sex/gender",53.1 µM
same,Plasma Vitamin C Concentration (mean),"[2]; Non-Diabetic Control, un-adjusted for sex/gender",53.1 µM
same,plasma vitamin C concentration below which no vitamin C was found in urine (renal threshold),[3],55 µM
same,"Minimal Elimination Threshold (MET), 2SD below mean renal threshold using PBPK",[4]; healthy men,38.1 µM
same,"vitamin C renal threshold, Pharmacokinetic Modeling (PBPK), individual estimates","[4]; healthy men, individual subjects M1-M7, plasma concentration at which vitamin C first appears in urine",52 μM and 51 μM and 40 μM and 56 μM and 45 μM (2×) and 50 μM
same,"vitamin C renal threshold, PBPK, Mean (SD)","[4]; healthy men, n = 7",48.5(5.2) μM
same,"vitamin C renal threshold, PBPK, Mean (SD)","[4]; healthy men, n = 7, listed as Vitamin C",48.5 μM and 48.5 (5.2) μM
same,"vitamin C renal threshold, Population Curve Fitting (PCF)",[4]; healthy men,48.3 µM and 48.28 µM
same,"vitamin C renal threshold, Population Curve Fitting (PCF)","[4]; healthy men, listed as Vitamin C",48.3 µM
same,"Minimal Elimination Threshold (MET), 2SD below mean renal threshold using PBPK",[4]; healthy women,43.2 µM
same,"vitamin C renal threshold, Pharmacokinetic Modeling (PBPK), individual estimates","[4]; healthy women, individual subjects W1-W10",54 μM (3×) and 67 μM and 57 μM and 64 μM and 63 μM and 45 μM and 70 μM and 55 μM
same,"vitamin C renal threshold, PBPK, Mean (SD)","[4]; healthy women, n = 10",58.3(7.5) μM
same,"vitamin C renal threshold, PBPK, Mean (SD)","[4]; healthy women, n = 10, listed as Vitamin C",58.3 μM and 58.3 (7.5) μM
same,"vitamin C renal threshold, Population Curve Fitting (PCF)",[4]; healthy women,60.4 µM and 60.39 µM
same,"vitamin C renal threshold, Population Curve Fitting (PCF)","[4]; healthy women, listed as Vitamin C",60.4 µM
